# Experimental data taken from ChEMBL document CHEMBL1201862, “PubChem BioAssay data set” (2004).
# Activity calls are given as the source filed them.
# Tests used:
# [1] = A cytotoxicity screen of small molecule inhibitors of the PhoP region in Salmonella typhi identified in the primary screen. [Related pubchem assays: 1850, 1864, 1985 ]; format: functional
# [2] = target: Disintegrin and metalloproteinase domain-containing protein 17 (Homo sapiens, UniProt P78536); experiment: exosite inhibitors of ADAM17, dose response, biochemical (AID 743260)
# Chain of Disintegrin and metalloproteinase domain-containing protein 17 (P78536 whole entry, the tested form may be a part): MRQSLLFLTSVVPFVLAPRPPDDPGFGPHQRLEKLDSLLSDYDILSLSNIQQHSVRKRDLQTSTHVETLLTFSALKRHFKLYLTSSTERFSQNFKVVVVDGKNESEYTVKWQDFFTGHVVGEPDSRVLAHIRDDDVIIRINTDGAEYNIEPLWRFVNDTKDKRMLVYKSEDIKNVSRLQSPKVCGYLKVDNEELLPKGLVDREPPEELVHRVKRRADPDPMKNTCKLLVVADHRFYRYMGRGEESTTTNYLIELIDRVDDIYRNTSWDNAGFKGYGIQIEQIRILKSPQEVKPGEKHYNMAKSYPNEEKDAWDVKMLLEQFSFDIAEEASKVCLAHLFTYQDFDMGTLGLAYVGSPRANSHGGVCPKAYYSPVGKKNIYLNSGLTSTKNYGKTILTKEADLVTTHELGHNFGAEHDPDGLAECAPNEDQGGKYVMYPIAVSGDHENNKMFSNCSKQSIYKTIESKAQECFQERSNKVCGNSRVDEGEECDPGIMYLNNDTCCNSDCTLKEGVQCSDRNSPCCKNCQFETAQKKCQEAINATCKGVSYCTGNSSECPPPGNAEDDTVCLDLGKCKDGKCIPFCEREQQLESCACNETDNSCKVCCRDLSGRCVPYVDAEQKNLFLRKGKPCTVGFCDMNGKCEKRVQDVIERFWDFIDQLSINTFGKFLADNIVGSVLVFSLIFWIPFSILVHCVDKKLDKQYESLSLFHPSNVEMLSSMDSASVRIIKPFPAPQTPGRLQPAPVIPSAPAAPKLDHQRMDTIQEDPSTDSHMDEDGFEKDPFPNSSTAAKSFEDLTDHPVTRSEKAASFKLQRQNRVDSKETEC
# [3] = ADAM10 protease inhibitors, dose response, selectivity assay for ADAM17 exosite inhibitor project, biochemical, FRET peptide substrate, recombinant human ADAM10 (AID 743259);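 note: ADAM10 enzyme cleaving a FRET peptide substrate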
# [4] = M. tuberculosis H37Rv growth inhibitors, H37Rv strain (AID 1626); format: functional
# [5] = HEp-2 cell cytotoxicity, dose response, cytotoxicity control for RSV inhibitor project, HTS (AID 2410); format: functional; settings: human respiratory syncytial virus
# [6] = cytotoxicity toward DRD oncogenic fibroblasts, dose response, cell-based, non-viral oncogenic, luminescence (AID 1934); format: functional; settings: Homo sapiens
# BJ [7] = experiment: cytotoxicity toward Ras-transformed BJeLR fibroblasts, dose response, cell-based, alamar blue fluorescence, cherrypicked samples (AID 2631); format: functional; settings: Homo sapiens;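 note: confirmatory dose-response assay in RAS-dependent BJ fibroblasts engineered with TERT, LT and ST, with cytotoxicity read by fluorescence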
# BJ [8] = experiment: cytotoxicity toward BJ-TERT fibroblasts, dose response, cell-based, RAS-independent, luminescence (AID 1933); format: functional; settings: Homo sapiens
# Vero = experiment: cells; format: functional; settings: Chlorocebus sabaeus
# BJ [9] = experiment: cytotoxicity toward BJ-TERT-LT-ST fibroblasts, dose response, cell-based, RAS-independent, luminescence (AID 1935); format: functional; settings: Homo sapiens;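 note: BJ fibroblasts immortalized with TERT plus LT and ST oncogenes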
# [10] = Luminescence Cell-Based Dose Retest to Confirm Inhibitors of Cancer Stem Cells. [Related pubchem assays (depositor defined):AID2717, AID2721]; format: functional; settings: Homo sapiens
# BJ [11] = experiment: cells; format: functional, cell-based; settings: Homo sapiens
# Estrogen receptor beta = Estrogen receptor beta (Homo sapiens, UniProt Q92731); experiment: ERβ–SRC-3 coactivator interaction inhibitors, confirmation, orthogonal assay, biochemical, ELISA, streptavidin-HRP readout (AID 1060)
# Chain of Estrogen receptor beta (Q92731 whole entry): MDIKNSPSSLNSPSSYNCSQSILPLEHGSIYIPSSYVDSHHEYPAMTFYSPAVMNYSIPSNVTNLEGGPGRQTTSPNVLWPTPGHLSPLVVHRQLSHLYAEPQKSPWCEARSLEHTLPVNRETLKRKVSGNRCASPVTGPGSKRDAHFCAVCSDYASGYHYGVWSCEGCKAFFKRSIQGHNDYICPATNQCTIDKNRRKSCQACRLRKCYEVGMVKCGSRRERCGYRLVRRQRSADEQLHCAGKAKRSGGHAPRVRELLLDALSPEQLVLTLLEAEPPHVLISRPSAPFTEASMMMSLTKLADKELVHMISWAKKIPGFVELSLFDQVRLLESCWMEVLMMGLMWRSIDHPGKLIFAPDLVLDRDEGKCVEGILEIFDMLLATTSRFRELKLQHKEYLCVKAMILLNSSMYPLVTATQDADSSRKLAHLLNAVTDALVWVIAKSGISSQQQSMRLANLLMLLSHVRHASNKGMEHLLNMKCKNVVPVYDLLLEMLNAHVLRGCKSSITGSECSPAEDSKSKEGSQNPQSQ
# [12] = cytotoxicity toward NIH3T3 fibroblasts, dose response, counter-screen, cell-based, ATP luminescence, mouse fibroblasts (AID 2010); format: functional;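 note: cells exposed to compound for about 90 hours before reading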
# [13] = inhibitors of intracellular T. cruzi replication, confirmation, NIH3T3 host cells, beta-gal luminescence (AID 2044); format: functional, cell-based;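 note: intracellular parasites grown in NIH/3T3 mouse fibroblasts as host cells; luminescent beta-galactosidase reporter signal from transgenic T. cruzi replicating inside host cells; inhibitors lower the luminescence signal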
# Prothrombin = Prothrombin (Homo sapiens, UniProt P00734); experiment: Thrombin 1536 HTS Dose Response Confirmation. [Related pubchem assays: 1046 (Thrombin 1536 HTS; hits were confirmed in this assay)]; format: functional
# Streptococcus = experiment: Group A Streptococcus viability loss, dose response, counter-screen for streptokinase expression inhibitor project, luminescence, BacTiterGlo (AID 1915); format: functional, organism-based;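 note: potency for reduction of bacterial viability or growth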
# [14] = target: T1, Heat shock factor protein 1 (Mus musculus, UniProt P38532); experiment: inhibition of MG132-induced HSE-luciferase signal, confirmation, cell-based, NIH3T3, luminescence, dose retest (AID 2382); format: functional;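 note: NIH3T3 fibroblasts with HSF1-driven luciferase reporter stressed by proteasome inhibitor MG132; luminescence from HSF1-driven luciferase expression after 8 hours of MG132 stress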
# T1 sequence (P38532 whole entry): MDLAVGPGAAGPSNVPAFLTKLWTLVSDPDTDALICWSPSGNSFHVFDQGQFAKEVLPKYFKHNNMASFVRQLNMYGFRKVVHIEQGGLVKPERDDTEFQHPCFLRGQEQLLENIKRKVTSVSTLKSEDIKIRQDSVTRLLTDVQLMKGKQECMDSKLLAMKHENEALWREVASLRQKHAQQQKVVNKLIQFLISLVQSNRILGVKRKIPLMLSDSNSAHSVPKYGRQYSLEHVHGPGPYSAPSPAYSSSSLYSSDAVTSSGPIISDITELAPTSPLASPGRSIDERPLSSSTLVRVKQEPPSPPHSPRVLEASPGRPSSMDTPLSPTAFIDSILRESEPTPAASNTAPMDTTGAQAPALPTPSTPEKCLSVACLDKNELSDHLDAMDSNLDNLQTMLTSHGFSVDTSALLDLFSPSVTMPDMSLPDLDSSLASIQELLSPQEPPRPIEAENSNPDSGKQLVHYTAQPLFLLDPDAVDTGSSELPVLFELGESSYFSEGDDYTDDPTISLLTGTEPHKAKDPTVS
# [15] = tested on: Streptococcus sp. 'group A'; experiment: growth inhibition of control SK(-) GAS strain, dose response, counter-screen for streptokinase expression inhibitor project, luminescence, kanamycin, BacTiterGlo, confirmation (AID 1900); format: functional, organism-based
# [16] = target: T2, DNA repair protein RAD52 homolog (Homo sapiens, UniProt P43351); format: functional, biochemical
# T2 sequence (P43351 whole entry): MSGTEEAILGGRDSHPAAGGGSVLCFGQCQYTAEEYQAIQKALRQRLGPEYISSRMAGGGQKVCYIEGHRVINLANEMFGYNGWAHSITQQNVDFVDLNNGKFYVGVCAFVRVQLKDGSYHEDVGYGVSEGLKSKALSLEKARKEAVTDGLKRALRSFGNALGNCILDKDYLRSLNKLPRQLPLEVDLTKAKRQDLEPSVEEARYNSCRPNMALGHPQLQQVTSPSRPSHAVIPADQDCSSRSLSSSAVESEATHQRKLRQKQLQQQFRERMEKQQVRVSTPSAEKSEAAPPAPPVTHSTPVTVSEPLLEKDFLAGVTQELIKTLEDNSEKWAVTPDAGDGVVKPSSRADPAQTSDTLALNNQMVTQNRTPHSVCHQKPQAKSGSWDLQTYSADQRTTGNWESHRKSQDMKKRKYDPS
# Streptokinase A = target: T3, Streptokinase A (Streptococcus pyogenes serotype M1, UniProt P10520); experiment: S. pyogenes streptokinase expression inhibitors, potency, dose response, plasminogen activation absorbance, OD405 (AID 1914); format: functional, Streptococcus pyogenes M1 GAS;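 note: secreted streptokinase activity via plasminogen activation per viability signal from cell pellet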
# T3 sequence (P10520 whole entry): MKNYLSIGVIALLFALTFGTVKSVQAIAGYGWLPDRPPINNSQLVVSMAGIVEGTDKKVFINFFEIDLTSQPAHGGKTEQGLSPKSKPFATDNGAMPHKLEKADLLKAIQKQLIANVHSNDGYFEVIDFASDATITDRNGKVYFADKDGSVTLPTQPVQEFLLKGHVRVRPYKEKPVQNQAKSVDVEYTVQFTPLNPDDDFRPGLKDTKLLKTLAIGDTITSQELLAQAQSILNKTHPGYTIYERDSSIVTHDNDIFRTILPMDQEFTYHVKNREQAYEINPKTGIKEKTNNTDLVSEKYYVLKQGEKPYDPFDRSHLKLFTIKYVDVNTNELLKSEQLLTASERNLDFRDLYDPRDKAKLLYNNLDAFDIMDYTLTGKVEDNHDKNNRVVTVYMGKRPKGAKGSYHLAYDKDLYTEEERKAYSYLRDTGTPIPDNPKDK
# [17] = inhibitors of clade B AD8 Env fusion, dose response, cell-based, cherry-pick (AID 652062); format: functional;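 note: luciferase signal from cell-cell fusion driven by HIV-1 clade B AD8 Env; potency is for inhibitors of fusion seen as a drop in luminescence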
# [18] = CEM21 lymphoblast cell cytotoxicity, dose response, cytotoxicity control for viral fusion inhibitor project, CellTiter-Glo luminescence, cherry-picked (AID 652042); format: functional, cell-based;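 note: potency for signal decrease meaning cytotoxicity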
# [19] = inhibitors of HIV Env-driven cell fusion, dose response, cherry-pick (AID 652057); format: functional, cell-based
# [20] = off-target signal loss in HeLa-CEM21 co-culture – HeLa F-luc CTL cells, cherry-picked, counter-screen for HIV-1 Env fusion inhibitor project, dose response (AID 652040); format: functional, cell-based;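 note: potency for signal decrease marking cytotoxic or nonspecific inhibition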
# [21] = ZM109 Env clade C HIV-1 fusion inhibitors, dose response, HeLa effector, CEM target cells, luciferase, cherry-pick (AID 652058); format: functional, cell-based
# Coagulation factor XII = target: T4, Coagulation factor XII (Homo sapiens, UniProt P00748); format: functional;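 note: activated factor XIIa alpha cleaving a fluorogenic AMC peptide substrate; inhibitor potency from loss of enzyme activity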
# T4 sequence (P00748 whole entry): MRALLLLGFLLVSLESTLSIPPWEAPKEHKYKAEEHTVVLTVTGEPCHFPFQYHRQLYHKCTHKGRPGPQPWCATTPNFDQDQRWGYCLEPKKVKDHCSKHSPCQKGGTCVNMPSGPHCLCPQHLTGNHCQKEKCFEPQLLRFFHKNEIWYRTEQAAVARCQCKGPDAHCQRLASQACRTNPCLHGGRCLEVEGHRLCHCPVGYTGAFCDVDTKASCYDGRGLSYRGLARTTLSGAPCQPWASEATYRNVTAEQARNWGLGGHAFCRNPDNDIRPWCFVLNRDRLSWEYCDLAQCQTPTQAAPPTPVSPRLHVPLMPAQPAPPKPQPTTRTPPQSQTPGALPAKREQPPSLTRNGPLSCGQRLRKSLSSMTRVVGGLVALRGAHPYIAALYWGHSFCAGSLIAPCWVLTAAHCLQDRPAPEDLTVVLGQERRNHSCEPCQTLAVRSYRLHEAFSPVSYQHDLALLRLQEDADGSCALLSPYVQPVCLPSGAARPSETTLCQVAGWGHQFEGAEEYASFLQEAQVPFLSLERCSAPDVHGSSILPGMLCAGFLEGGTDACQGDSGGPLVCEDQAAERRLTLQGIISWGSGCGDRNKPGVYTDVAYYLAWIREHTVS
# [22] = P. falciparum Dd2 growth inhibitors, dose response, SYBR Green, cherry-picked samples (AID 1159567); format: functional, cell-based
# [23] = P. falciparum ATP4 D1247Y mutant growth inhibitors, dose response, NITD609-resistant line, SYBR Green, dry powder (AID 1159571); format: functional, cell-based;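 note: parasites synchronized at ring stage by sorbitol before testing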
# [24] = P. falciparum 3D7-ScDHODH growth inhibitors, dose response, SYBR Green, dry powder samples (AID 1159570); format: functional, cell-based;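 note: parasite growth measured after 72 hours of compound exposure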
# [25] = P. falciparum Dd2 growth inhibitors, dose response, SYBR Green, dry powder samples (AID 1159566); format: functional, cell-based;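 note: potency for growth inhibition with lower SYBR green DNA signal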
structure (smiles),measurement,setting,value
Cc1cccc(N(C(=O)CCC(=O)Nc2ccccn2)C(C(=O)NC(C)C)c2ccc(O)cc2)c1 (centres undefined),EC50,[1],> 50 µM (active)
Cc1cc(=O)oc2c(CN(C)Cc3ccccc3)c(O)ccc12,EC50,[1],> 50 µM (active)
Cc1cc(Oc2ccccc2)nc(SCC(=O)Nc2ccc(Cl)c(Cl)c2)n1,IC50,[2],> 69.5 µM (inactive)
same,IC50,[3],10.4 µM (inactive)
CC(C)OC(=O)c1ccc(NC(=O)c2cncc(Br)c2)cc1,IC50,[4],> 100 µM (active)
same,CC50,[5],> 50 µM (active)
COc1cc(OC)cc(-c2c[nH]nc2N)c1,IC50,[3],> 69.5 µM (inactive)
COc1cc(OC)cc(-c2cn[nH]c2N)c1,IC50,[2],> 69.5 µM (inactive)
CCCN1C/C(=C/c2ccc3c(c2)OCO3)C(=O)/C(=C/c2ccc3c(c2)OCO3)C1,EC50,[6],4.99 µM (active)
same,EC50,BJ [7],0.582 µM (inconclusive)
same,EC50,BJ [8],4.04 µM (inconclusive)
same,IC50,[2],19.6 µM (inactive)
same,IC50,[3],> 69.5 µM (inactive)
same,CC50,Vero,9.59 µM (active)
same,EC50,BJ [9],2.94 µM (inconclusive)
same,AC50,[10],0.766 µM (active)
same,EC50,BJ [11],14.9 µM (inconclusive)
CC1(C)C(=O)Nc2ccccc2N1C(=O)COc1ccc(S(=O)(=O)N2CCOCC2)cc1Cl,IC50,Estrogen receptor beta,< 0.023 µM (not active)
Cc1cccc(C(=N)NOC(=O)N2CCOCC2)c1,IC50,[2],> 69.5 µM (inactive)
same,EC50,[12],> 60 µM (not active)
same,EC50,[13],2.63 µM (active)
same,IC50,[3],> 69.5 µM (inactive)
COc1cccc2cc(C(=O)NCC3CCCO3)c(=O)oc12 (centres undefined),IC50,Prothrombin,> 50 µM (not active)
Cc1cc[n+](CC(=O)c2ccc(NC(=O)c3ccccc3)cc2)cc1,EC50,[1],> 50 µM (active)
Cc1ccc2nc(N(CCCN(C)C)C(=O)c3ccc(S(=O)(=O)N4CCCCCC4)cc3)sc2c1,EC50,Streptococcus,> 150 µM (not active)
same,EC50,[14],109 µM (active)
same,EC50,[15],> 150 µM (not active)
same,AC50,[16],30.7 µM (active)
same,EC50,[12],> 60 µM (not active)
same,EC50,[13],0.125 µM (active)
same,EC50,Streptokinase A,> 150 µM (not active)
CCCCc1nc2ccccc2c(NC(=O)CNC(C)(C)C)c1CCC,IC50,Prothrombin,> 50 µM (not active)
CN(C)CCCn1c(=S)[nH]c2sc3c(c2c1=O)CCCC3,AC50,[16],5.83 µM (active)
same,AC50,[10],> 195 µM (inactive)
COC(=O)[C@@]12C[C@@H](CC(=O)NCc3cccc(C(F)(F)F)c3)C(=O)N(Cc3ccco3)C1=CCC(C)(C)C2,AC50,[17],20.9 µM (active)
same,AC50,[18],50 µM (active)
same,AC50,[19],4.26 µM (active)
same,AC50,[20],8.92 µM (active)
same,AC50,[21],8.24 µM (active)
CN1C(=O)/C(=N/OC(=O)c2ccccc2)c2ccccc21,IC50,Coagulation factor XII,4.93 µM (active)
same,IC50,Prothrombin,5.05 µM (active)
CC(/C=C(\O)c1ccc(C)o1)=N\c1ccc2c(c1)OCO2,IC50,[4],> 100 µM (active)
O=C(c1ccc(F)cc1)N1CC(=O)N2[C@H](C1)[C@@H](c1ccc(-c3cccnc3)cc1)[C@@H]2CO,AC50,[22],0.439 µM (active)
same,AC50,[23],0.542 µM (active)
same,AC50,[24],0.786 µM (active)
same,AC50,[25],0.42 µM (active)
COc1ccc(/N=C2\C(=O)Nc3ccccc32)cc1,IC50,[4],> 100 µM (active)
CSc1nc(-c2ccco2)nn1C(=O)c1ccccc1,IC50,Prothrombin,0.082 µM (active)
CCOC(=O)c1cn[nH]c1N,IC50,[4],> 100 µM (active)
